Data as given in US8080519B2, “Compositions and methods for enhanced pharmacological activity of compositions comprising peptide drug substances” (priority 1999, dated 2011).

Assays:
splenocytes = assay: T cell proliferation in a skin immunization model (tritiated thymidine incorporation by splenocytes); type: in vivo, mice; conditions: for Proliferation Index: splenocytes grown 4 days, 2 weeks after skin immunization; for proliferation index, overall comparison: comparison among the tested formulations
Experimental: Model: • 9 week old mice were immunized by application on bare skin of 100·g of Nef(66-97) peptide sequence and modifications thereof in addition to 5·g of choleric toxin and 100·g of oligodeoxynucleotide containing a CpG moiety (Immunology, 2002 104:1-14). 2 weeks later splenocytes were collected and grown over 4 days in the presence of 4 different concentrations of Nef(66-97) peptide (SEQ ID NO:2). The proliferation was measured by incorporating tritiated thymidine.

male Wistar rats = assay: hot plate test in rats (time to first licking of the posterior foot); type: in vivo, rat; conditions: for Time to first signal activity after oral administration: morphine, codeine, ibuprofen 10 mg/kg; for Time to first signal activity after oral administration / Time to first signal activity after i.v. administration: CY5M 2.5 mg/kg; for Time to first signal activity after i.v. administration: morphine 1 mg/kg
Experimental: The time to first licking of the posterior foot by the rat is recorded after the rat has been place on a hot plate maintained at an elevated temperature (40° C.). This procedure provides accurate data on central analgesic activities induced by various candidate drugs. Under placebo conditions, the time to first licking of the posterior foot of the test animal varies between 30 and 50 seconds. […] In the experiments reported herein, a standard hot plate test was used to assess analgesia and the time to first licking of the test animal's posterior foot was used as the triggering event for measurement of elapsed time as indicative of the pharmacological effect of the administered drug species.
Seven groups of five male Wistar rats each were randomly assigned to the following treatments: placebo, 1 mg/kg morphine (i.v.), 10 mg/kg morphine (oral), 10 mg/kg codeine (oral), 10 mg/kg ibuprofen (oral), 2.5 mg/kg CY5M (i.v.), and 2.5 mg/kg CY5M (oral). The method was pre-validated with two oral and i.v. administrations of saline placebo and the results were similar to those obtained with placebo in the experiment reported below.

[1] = cited from earlier work
[2] = cited from earlier work; remark: listed apart in the source

In the case of “Cinnamoyl-aminooctanoyl-Nef(66-97) G95ψ . . . (CH2—CH2) G96 [CC8]”, the “Proliferation Index” value (splenocytes; Conc. of Nef peptide 0.5) was 22, the “Proliferation Index” value (splenocytes; Conc. of Nef peptide 5) was 20 and the “Proliferation Index” value (splenocytes; Conc. of Nef peptide 50) was 16. The “Proliferation Index” value (splenocytes; Conc. of Nef peptide .05) was 10 and the “proliferation index, overall comparison” value (splenocytes) was “best proliferation index”.
For Tyr-Gly-Gly-Phe-Met [Met-Enkephalin], the “duration of transient effect after i.v. administration” value (male Wistar rats; preliminary study, i.v.) was “about 15 minutes” and the “analgesic effect after oral administration” value (male Wistar rats; preliminary study, oral, 5 mg/kg dose) was “unable to demonstrate any effect”.
With Nef(66-97)-palmitoyl lysilamide [Lipo] the “Proliferation Index” value (splenocytes; Conc. of Nef peptide 0.5) was 06, the “Proliferation Index” value (splenocytes; Conc. of Nef peptide 5) was 08 and the “Proliferation Index” value (splenocytes; Conc. of Nef peptide 50) was 07. The “Proliferation Index” value (splenocytes; Conc. of Nef peptide .05) was 03.
In the case of `COc1ccc2c3c1O[C@H]1[C@@H](O)C=C[C@H]4[C@@H](C2)N(C)CC[C@@]341` [Codeine], the “Time to first signal activity after oral administration” value (shortened to “Time … after oral administration”) (male Wistar rats; oral, 0 h) was 53.2 s, the “Time … after oral administration” value (male Wistar rats; oral, 1 h) was 51.4 s and the “Time … after oral administration” value (male Wistar rats; oral, 2 h) was 64.6 s. The “Time … after oral administration” value (male Wistar rats; oral, 4 h) was 57.6 s, the “Time … after oral administration” value (male Wistar rats; oral, 6 h) was 56.2 s and the “Time … after oral administration” value (male Wistar rats; oral, 24 h) was 46.4 s.
With cinnamoyl-Met-Enkephalin [CY5M] the “duration of analgesic effect” value (male Wistar rats; i.v. administration) was at least 24 h, the “Time to first signal activity after i.v. administration” value (“Time … after i.v. administration” below) (male Wistar rats; i.v., 0 h) was 51.0 s and the “Time … after i.v. administration” value (male Wistar rats; i.v., 1 h) was 57.0 s. The “Time … after i.v. administration” value (male Wistar rats; i.v., 2 h) was 114.0 s, the “Time … after i.v. administration” value (male Wistar rats; i.v., 4 h) was 88.2 s and the “Time … after i.v. administration” value (male Wistar rats; i.v., 6 h) was 106.0 s. For the same compound, the “Time … after i.v. administration” value (male Wistar rats; i.v., 24 h) was 86.6 s, the “effectiveness relative to morphine by the same route (area under the dose response curve)” value (male Wistar rats; i.v., CY5M 2.5 mg/kg vs morphine 1 mg/kg) was “at least 8 times” and the “duration of analgesic effect” value (male Wistar rats; oral administration) was at least 24 h. For the same compound, the “Time … after oral administration” value (male Wistar rats; oral, 0 h) was 53.6 s, the “Time … after oral administration” value (male Wistar rats; oral, 1 h) was 46.2 s and the “Time … after oral administration” value (male Wistar rats; oral, 2 h) was 78.8 s. The “Time … after oral administration” value (male Wistar rats; oral, 4 h) was 78.2 s, the “Time … after oral administration” value (male Wistar rats; oral, 6 h) was 82.6 s and the “Time … after oral administration” value (male Wistar rats; oral, 24 h) was 98.8 s. For the same compound, the “effectiveness relative to morphine by the same route (area under the dose response curve)” value (male Wistar rats; oral, CY5M 2.5 mg/kg vs morphine 10 mg/kg) was “at least 8 times”.
With `CC(C)Cc1ccc(C(C)C(=O)O)cc1` (stereo not drawn) [Ibuprofen] the “Time … after oral administration” value (male Wistar rats; oral, 0 h) was 53.2 s, the “Time … after oral administration” value (male Wistar rats; oral, 1 h) was 55.0 s and the “Time … after oral administration” value (male Wistar rats; oral, 2 h) was 70.4 s. The “Time … after oral administration” value (male Wistar rats; oral, 4 h) was 66.0 s, the “Time … after oral administration” value (male Wistar rats; oral, 6 h) was 54.0 s and the “Time … after oral administration” value (male Wistar rats; oral, 24 h) was 44.2 s.
In the case of “Cinnamoyl-aminovaleryl-Nef(66-97) G95ψ . . . (CH2—CH2) G96 [CC5]”, the “Proliferation Index” value (splenocytes; Conc. of Nef peptide 0.5) was 22, the “Proliferation Index” value (splenocytes; Conc. of Nef peptide 5) was 21 and the “Proliferation Index” value (splenocytes; Conc. of Nef peptide 50) was 20. The “Proliferation Index” value (splenocytes; Conc. of Nef peptide .05) was 11 and the “proliferation index, overall comparison” value (splenocytes) was “best proliferation index”.
For `NCCCC[C@H](N[C@@H](CCc1ccccc1)C(=O)O)C(=O)N1CCC[C@H]1C(=O)O` [Lisinopril], the oral bioavailability [1] is listed as under 25%, the “Tmax (time to maximum serum levels in vivo)” value ([1]; oral) is listed as “more than seven” and the solubility in water [2] is listed as “relatively good solubility in water”.
For `C[C@H](N[C@@H](CCc1ccccc1)C(=O)O)C(=O)N1CCC[C@H]1C(=O)O` [Enalaprilat], the oral absorption [1] is given as “very poorly absorbed orally”.
With “Cinnamoyl-Nef(66-97) G95ψ . . . (CH2—CH2) G96 [C0]” the “Proliferation Index” value (splenocytes; Conc. of Nef peptide 0.5) was 12, the “Proliferation Index” value (splenocytes; Conc. of Nef peptide 5) was 14 and the “Proliferation Index” value (splenocytes; Conc. of Nef peptide 50) was 12. For the same compound, the “Proliferation Index” value (splenocytes; Conc. of Nef peptide .05) was 08.
With `CN1CC[C@]23c4c5ccc(O)c4O[C@H]2[C@@H](O)C=C[C@H]3[C@H]1C5` [Morphine] the “duration of analgesic effect” value (male Wistar rats; i.v. administration) was “six”, the “Time … after i.v. administration” value (male Wistar rats; i.v., 0 h) was 51.8 s and the “Time … after i.v. administration” value (male Wistar rats; i.v., 1 h) was 118.8 s. The “Time … after i.v. administration” value (male Wistar rats; i.v., 2 h) was 86.6 s, the “Time … after i.v. administration” value (male Wistar rats; i.v., 4 h) was 63.2 s and the “Time … after i.v. administration” value (male Wistar rats; i.v., 6 h) was 45.6 s. The “Time … after i.v. administration” value (male Wistar rats; i.v., 24 h) was 40.0 s, the “duration of analgesic effect” value (male Wistar rats; oral administration) was “six” and the “Time … after oral administration” value (male Wistar rats; oral, 0 h) was 51.8 s. For the same compound, the “Time … after oral administration” value (male Wistar rats; oral, 1 h) was 84.8 s, the “Time … after oral administration” value (male Wistar rats; oral, 2 h) was 81.2 s and the “Time … after oral administration” value (male Wistar rats; oral, 4 h) was 58.8 s. For the same compound, the “Time … after oral administration” value (male Wistar rats; oral, 6 h) was 48.8 s and the “Time … after oral administration” value (male Wistar rats; oral, 24 h) was 42.0 s.
In the case of “D-Gal(OPiv)4-hydroxyvaleryl-aminooctanoyl-Nef(66-97) • G95ψ . . . (CH2—CH2) G96 [Pivgal]”, the “Proliferation Index” value (splenocytes; Conc. of Nef peptide 0.5) was 05, the “Proliferation Index” value (splenocytes; Conc. of Nef peptide 5) was 08 and the “Proliferation Index” value (splenocytes; Conc. of Nef peptide 50) was 10. For the same compound, the “Proliferation Index” value (splenocytes; Conc. of Nef peptide .05) was 02.
With VGFPVTPQVPLRPMTYKAAVDLSHFLKEKGGL [Nef] the “Proliferation Index” value (splenocytes; Conc. of Nef peptide 0.5) was 10, the “Proliferation Index” value (splenocytes; Conc. of Nef peptide 5) was 13 and the “Proliferation Index” value (splenocytes; Conc. of Nef peptide 50) was 10. The “Proliferation Index” value (splenocytes; Conc. of Nef peptide .05) was 03.
For `CCOC(=O)[C@H](CCc1ccccc1)N[C@@H](C)C(=O)N1CCC[C@H]1C(=O)O` [Enalapril], the oral absorption [1] is listed as “better absorbed orally”.
